Measured values from patent US20250367322A1, “NUCLEOBASE EDITING SYSTEM AND METHOD OF USING SAME FOR MODIFYING NUCLEIC ACID SEQUENCES” (ReNAgade Therapeutics Management, Inc., priority 2022, published 2025).

Experiments:
[1] = system: Mus musculus EMX1 locus (mEMX1); assay: In vivo TnpB editing of mouse EMX1 locus in liver, delivered with an LNP (indels detected by NGS); conditions: TnpB delivered with an LNP (Table (III) Compound C59), FIG. 7
human EMX1 locus (hEMX1) = assay: TnpB endonuclease editing of human EMX1 locus in HEK293T cells (indels detected by NGS); assay type: cell-based; conditions: FIG. 5

Row | Molecule | editing of Mus musculus EMX1 locus (mEMX1) in liver in vivo [1] | editing of human EMX1 locus (hEMX1) (human EMX1 locus (hEMX1))
1 | CCCCCC(CCCCC)CCOC(=O)CCCCCCCC(CCCCCCCC(=O)OC1CC2CCCC1C2)OC(=O)CCCN(C)C (centres unmarked) [Compound C59] | edits Mus musculus EMX1 locus (mEMX1) in liver in vivo | 
2 | TnpB (SEQ ID NO: 1): "TnpB (SEQ ID NO: 1) endonuclease edits human EMX1 locus (hEMX1) in HEK293T cells" (protein, Deinococcus radiodurans) MIRNKAFVVRLYPNAAQTELINRTLGSARFVYNHFLARRIAAYKESGKGLTYGQTSSELTLLKQAEETSWLSEVDKFALQNSLKNLETAYKNFFRTVKQSGKKVGFPRFRKKRTGESYRTQFTNNNIQIGEGRLKLPKLGWVKTKGQQDIQGKILNVTVRRIHEGHYEASVLCEVEIPYLPAAPKFAAGVDVGIKDFAIVTDGVRFKHEQNPKYYRSTLKRLRKAQQTLSRRKKGSARYGKAKTKLARIHKRIVNKRQDFLHKLTTSLVREYEIIGTEHLKPDNMRKNRRLALSISDAGWGEFIRQLEYKAAWYGRLVSKVSPYFPSSQLCHDCGFKNPEVKNLAVRTWTCPNCGETHDRDENAALNIRREALVAAGISDTLNAHGGYVRPASAGNGLRSENHATLVV |  | edits human EMX1 locus
